Source: patent publication US20240336654A1, “ANTIMICROBIAL PEPTIDOMIMETICS” (SPEXIS AG, priority 2021, published 2024)
Where a SMILES comes first, the peptide text is derived from it. Bridges are numbered along the chain shown (N, C = ends). [ ]: non-standard residue; d: D form. The star is where a group is joined. Val(Nα-amidino) = CC(C)[C@H](NC(=N)N)C(=O)*; dDab(iPr) = CC(C)NCC[C@@H](N)C(=O)O; Dab(iPr) = CC(C)NCC[C@H](N)C(=O)O; Hyp = O=C(O)[C@@H]1C[C@@H](O)CN1; Cha = N[C@@H](CC1CCCCC1)C(=O)O; Pen = CC(C)(S)[C@H](N)C(=O)O; dDab = NCC[C@@H](N)C(=O)O; Nle = CCCC[C@H](N)C(=O)O; Orn = NCCC[C@H](N)C(=O)O; Dab = NCC[C@H](N)C(=O)O

Tests used:
Assay type in all cases: cell-based
[1] = system: Escherichia coli ATCC 25922; settings: ATCC 25922
Outline: (§1)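 CLSI broth microdilution, slightly modified: cation-adjusted Mueller-Hinton II broth with about 5×10^5 CFU/mL from a 0.5 McFarland suspension, and two-fold serial peptide dilutions with Polysorbate 80 at 0.002% final. MIC (μg/mL) was the lowest concentration with no visible growth after 18-20 hours at 35° C.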

[2] = system: Escherichia coli MCR-1 Af 45; settings: MCR-1 Af 45
Outline: as §1

[3] = system: Klebsiella pneumoniae SSI3010; settings: SSI3010
Outline: as §1

[4] = system: human red blood cells (hRBC); settings: red cells of human, 1 h, 200 μg/mL
Outline: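 Percent hemolysis derived from OD540 of supernatants relative to full lysis by 2.5% Triton X-100 (PBS baseline). Washed fresh human erythrocytes (20% v/v) were exposed to 200 μg/mL peptide for 1 h at 37 °C with shaking.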

SMILES	Escherichia coli ATCC 25922 MIC [1]	Escherichia coli MCR-1 Af45 MIC [2]	Klebsiella pneumoniae SSI3010 MIC [3]	Hemolysis at 0.2 g/L [4]
CC[C@H](C)[C@H](NC(=O)[C@@H]1C[C@@H](O)CN1C(=O)[C@@H](N)C(C)C)C(=O)N[C@@H]1C(=O)N[C@@H](Cc2ccc(O)cc2)C(=O)N[C@@H](CO)C(=O)N[C@@H](CC(N)=O)C(=O)N[C@@H](CCCNC(=N)N)C(=O)N[C@@H](CCN)C(=O)N[C@@H]([C@@H](C)O)C(=O)N[C@H](CCN)C(=O)N[C@@H](CCCCN)C(=O)N[C@@H](CCN)C(=O)N[C@@H](CCCN)C(=O)N[C@H](C(=O)N[C@@H](Cc2ccc(O)cc2)C(=O)O)CSSC1(C)C [Example 64, Val-Hyp-Ile-Pen-Tyr-Ser-Asn-Arg-Dab-Thr-^DDab-Lys-Dab-Orn-Cys-Tyr] (H-V[Hyp]I[Pen]YSNR[Dab]T[dDab]K[Dab][Orn]CY-OH; disulfide 4-15)	0.0625 µg/mL	0.0625 µg/mL	0.125 µg/mL	<1%
CC[C@H](C)[C@H](NC(=O)[C@@H]1C[C@@H](O)CN1C(=O)[C@@H](N)C(C)C)C(=O)N[C@@H]1C(=O)N[C@@H](Cc2ccc(O)cc2)C(=O)N[C@@H](CO)C(=O)N[C@@H](CC(N)=O)C(=O)N[C@@H](CCCNC(=N)N)C(=O)N[C@@H](CCN)C(=O)N[C@@H]([C@@H](C)O)C(=O)N[C@H](CCN)C(=O)N[C@@H](CCCCN)C(=O)N[C@@H](CCN)C(=O)N[C@@H](CCN)C(=O)N[C@H](C(=O)N[C@@H](CC2CCCCC2)C(=O)O)CSSC1(C)C [Example 65, Val-Hyp-Ile-Pen-Tyr-Ser-Asn-Arg-Dab-Thr-^DDab-Lys-Dab-Dab-Cys-Cha] (H-V[Hyp]I[Pen]YSNR[Dab]T[dDab]K[Dab][Dab]C[Cha]-OH; disulfide 4-15)	0.25 µg/mL	0.0625 µg/mL	0.25 µg/mL	<1%
CC[C@H](C)[C@H](NC(=O)[C@@H]1C[C@@H](O)CN1C(=O)[C@@H](N)C(C)C)C(=O)N[C@@H]1C(=O)N[C@@H](Cc2ccc(O)cc2)C(=O)N[C@@H](CO)C(=O)N[C@@H](CC(N)=O)C(=O)N[C@@H](CCCNC(=N)N)C(=O)N[C@@H](CCN)C(=O)N[C@@H]([C@@H](C)O)C(=O)N[C@H](CCN)C(=O)N[C@@H](CCCCN)C(=O)N[C@@H](CCN)C(=O)N[C@@H](CCN)C(=O)N[C@H](C(=O)N[C@@H](Cc2c[nH]c3ccccc23)C(=O)O)CSSC1(C)C [Example 66, Val-Hyp-Ile-Pen-Tyr-Ser-Asn-Arg-Dab-Thr-^DDab-Lys-Dab-Dab-Cys-Trp] (H-V[Hyp]I[Pen]YSNR[Dab]T[dDab]K[Dab][Dab]CW-OH; disulfide 4-15)	0.0625 µg/mL	0.0625 µg/mL	0.125 µg/mL	<1%
CCCC[C@H](NC(=O)[C@@H]1CSSC(C)(C)[C@H](NC(=O)[C@@H](NC(=O)[C@@H]2C[C@@H](O)CN2C(=O)[C@@H](N)C(C)C)[C@@H](C)CC)C(=O)N[C@@H](Cc2ccc(O)cc2)C(=O)N[C@@H](CO)C(=O)N[C@@H](CC(N)=O)C(=O)N[C@@H](CCCNC(=N)N)C(=O)N[C@@H](CCN)C(=O)N[C@@H]([C@@H](C)O)C(=O)N[C@H](CCN)C(=O)N[C@@H](CCCCN)C(=O)N[C@@H](CCN)C(=O)N[C@@H](CCN)C(=O)N1)C(=O)O [Example 67, Val-Hyp-Ile-Pen-Tyr-Ser-Asn-Arg-Dab-Thr-^DDab-Lys-Dab-Dab-Cys-Nle] (H-V[Hyp]I[Pen]YSNR[Dab]T[dDab]K[Dab][Dab]C[Nle]-OH; disulfide 4-15)	0.0625 µg/mL	0.0625 µg/mL	0.125 µg/mL	<1%
CC[C@H](C)[C@H](NC(=O)[C@@H]1C[C@@H](O)CN1C(=O)[C@@H](NC(=N)N)C(C)C)C(=O)N[C@@H]1C(=O)N[C@@H](Cc2ccc(O)cc2)C(=O)N[C@@H]([C@@H](C)O)C(=O)N[C@@H](CC(N)=O)C(=O)N[C@@H](CCCNC(=N)N)C(=O)N[C@@H](CCN)C(=O)N[C@@H]([C@@H](C)O)C(=O)N[C@H](CCN)C(=O)N[C@@H](CCCCN)C(=O)N[C@@H](CCN)C(=O)N[C@@H](CCN)C(=O)N[C@H](C(=O)N[C@@H](Cc2ccc(O)cc2)C(=O)O)CSSC1(C)C [Example 68, Gua-Val-Hyp-Ile-Pen-Tyr-Thr-Asn-Arg-Dab-Thr-^DDab-Lys-Dab-Dab-Cys-Tyr] ({Val(Nα-amidino)}-[Hyp]I[Pen]YTNR[Dab]T[dDab]K[Dab][Dab]CY-OH; disulfide 3-14)	0.0625 µg/mL	0.03125 µg/mL	0.125 µg/mL	<1%
CC[C@H](C)[C@H](NC(=O)[C@@H]1C[C@@H](O)CN1C(=O)[C@@H](NC(=N)N)C(C)C)C(=O)N[C@@H]1C(=O)N[C@@H](Cc2ccc(O)cc2)C(=O)N[C@@H](CCN)C(=O)N[C@@H](CC(N)=O)C(=O)N[C@@H](CCCNC(=N)N)C(=O)N[C@@H](CCN)C(=O)N[C@@H]([C@@H](C)O)C(=O)N[C@H](CCN)C(=O)N[C@@H](CCCCN)C(=O)N[C@@H](CO)C(=O)N[C@@H](CCN)C(=O)N[C@H](C(=O)N[C@@H](Cc2ccc(O)cc2)C(=O)O)CSSC1(C)C [Example 69, Gua-Val-Hyp-Ile-Pen-Tyr-Dab-Asn-Arg-Dab-Thr-^DDab-Lys-Ser-Dab-Cys-Tyr] ({Val(Nα-amidino)}-[Hyp]I[Pen]Y[Dab]NR[Dab]T[dDab]KS[Dab]CY-OH; disulfide 3-14)	0.0625 µg/mL	0.0625 µg/mL	0.0625 µg/mL	<1%
CC[C@H](C)[C@H](NC(=O)[C@@H]1C[C@@H](O)CN1C(=O)[C@@H](NC(=N)N)C(C)C)C(=O)N[C@@H]1C(=O)N[C@@H](Cc2ccc(O)cc2)C(=O)N[C@@H](CO)C(=O)N[C@@H](CC(N)=O)C(=O)N[C@@H](CCCNC(=N)N)C(=O)N[C@@H](CCNC(C)C)C(=O)N[C@@H]([C@@H](C)O)C(=O)N[C@H](CCN)C(=O)N[C@@H](CCCCN)C(=O)N[C@@H](CCNC(C)C)C(=O)N[C@@H](CCN)C(=O)N[C@H](C(=O)N[C@@H](Cc2ccc(O)cc2)C(=O)O)CSSC1(C)C [Example 70, Gua-Val-Hyp-Ile-Pen-Tyr-Ser-Asn-Arg-Da b(iPr)-Thr-^DDab-Lys-Dab(iPr)-Dab-Cys-Tyr] ({Val(Nα-amidino)}-[Hyp]I[Pen]YSNR[Dab(iPr)]T[dDab]K[Dab(iPr)][Dab]CY-OH; disulfide 3-14)	0.125 µg/mL	0.0625 µg/mL	0.25 µg/mL	<1%
CC[C@H](C)[C@H](NC(=O)[C@@H]1C[C@@H](O)CN1C(=O)[C@@H](NC(=N)N)C(C)C)C(=O)N[C@@H]1C(=O)N[C@@H](Cc2ccc(O)cc2)C(=O)N[C@@H](CO)C(=O)N[C@@H](CC(N)=O)C(=O)N[C@@H](CCCNC(=N)N)C(=O)N[C@@H](CCN)C(=O)N[C@@H]([C@@H](C)O)C(=O)N[C@H](CCNC(C)C)C(=O)N[C@@H](CCCCN)C(=O)N[C@@H](CCN)C(=O)N[C@@H](CCN)C(=O)N[C@H](C(=O)N[C@@H](Cc2ccc(O)cc2)C(=O)O)CSSC1(C)C [Example 71, Gua-Val-Hyp-Ile-Pen-Tyr-Ser-Asn-Arg-Dab-Thr-^DDab(iPr)-Lys-Dab-Dab-Cys-Tyr] ({Val(Nα-amidino)}-[Hyp]I[Pen]YSNR[Dab]T[dDab(iPr)]K[Dab][Dab]CY-OH; disulfide 3-14)	0.0625 µg/mL	0.0625 µg/mL	0.125 µg/mL	<1%
CC[C@H](C)[C@H](NC(=O)[C@@H]1C[C@@H](O)CN1C(=O)[C@@H](NC(=N)N)C(C)C)C(=O)N[C@@H]1C(=O)N[C@@H](Cc2ccc(O)cc2)C(=O)N[C@@H](CCN)C(=O)N[C@@H](CC(N)=O)C(=O)N[C@@H](CCCNC(=N)N)C(=O)N[C@@H](CCN)C(=O)N[C@@H]([C@@H](C)O)C(=O)N[C@H](CCN)C(=O)N[C@@H](CCCCN)C(=O)N[C@@H]([C@@H](C)O)C(=O)N[C@@H](Cc2ccc(O)cc2)C(=O)N[C@H](C(=O)N[C@@H](Cc2ccc(O)cc2)C(=O)O)CSSC1(C)C [Example 72, Gua-Val-Hyp-Ile-Pen-Tyr-Dab-Asn-Arg-Dab-Thr-^DDab-Lys-Thr-Tyr-Cys-Tyr] ({Val(Nα-amidino)}-[Hyp]I[Pen]Y[Dab]NR[Dab]T[dDab]KTYCY-OH; disulfide 3-14)	0.5 µg/mL	0.5 µg/mL	0.5 µg/mL	<1%
CC[C@H](C)[C@@H]1NC(=O)[C@H]([C@@H](C)O)NC(=O)[C@H](CCCCN)NC(=O)[C@@H](CCN)NC(=O)[C@H]([C@@H](C)O)NC(=O)[C@H](CCN)NC(=O)[C@H](CCCNC(=N)N)NC(=O)[C@H](CC(N)=O)NC(=O)[C@H](CCN)NC(=O)[C@H](Cc2ccc(O)cc2)NC(=O)[C@@H](NC(=O)[C@@H](NC(=O)[C@@H]2C[C@@H](O)CN2C(=O)[C@@H](NC(=N)N)C(C)C)[C@@H](C)CC)C(C)(C)SSC[C@@H](C(=O)N[C@@H](Cc2ccc(O)cc2)C(=O)O)NC1=O [Example 73, Gua-Val-Hyp-Ile-Pen-Tyr-Dab-Asn-Arg-Dab-Thr-^DDab-Lys-Thr-Ile-Cys-Tyr] ({Val(Nα-amidino)}-[Hyp]I[Pen]Y[Dab]NR[Dab]T[dDab]KTICY-OH; disulfide 3-14)	0.5 µg/mL	0.5 µg/mL	0.5 µg/mL	<1%
